Entries after “also recorded” stand apart in the source; their conditions may differ.
Experiments:
[1] = system: rat primary cortical neurons; experiment: NMDA survival assay (LDH release), primary cortical neurons; assay type: cell-based; conditions: NMDA 20 μM; for reduction of cell death compared to DA001: compounds in μg/ml, FIG. 13
Description: FIG. 5 DA001 protects against NMDA excitotoxicity in rat cortical neurons. Embryonic rat cortical neurons (11DIV) were treated with NMDA (20 μM) in the absence or presence of TCM samples (μg/ml) or memantine (μM). Memantine is a known NMDA antagonist. LDH release in the medium was measured after overnight incubation and cell cytotoxicity was calculated as a percentage when compared to the solvent control, DMSO.
FIG. 12. Derivatives of DA001 rescue the cortical neurons from NMDA excitotoxicity. Embryonic rat cortical neurons (11DIV) were treated with NMDA (20 μM) in the absence or presence of DA001 or its derivatives (10 or 30 μM); LDH release in the medium after overnight or 24 hours incubation was measured and cell death was calculated as a percentage in comparison to DMSO, the solvent control. Data are expressed as mean±s.e.m. *=P<0.05.
FIG. 13. DA002 and DA021, both derivatives of DA001, reduced NMDA-induced excitotoxicity. Embryonic rat cortical neurons (11DIV) were treated with NMDA (20 μM) in the absence or presence of DA002 or DA021 (μg/ml). LDH release in the medium after overnight incubation was measured and cell cytotoxicity was calculated as a percentage in comparison to DMSO, the solvent control.
DA001 (at 10 μg/ml) reduced cell death by more than 60% compared to the DMSO control. Compound A0178 and memantine were included as negative and positive controls, respectively.
Memantine is an FDA-approved NMDA antagonist used for clinical indications such as dementia in Alzheimer's disease. Dose-dependant assays were performed for each compound and based on the resulting dose response curve, the corresponding EC50 for each compound was determined.
NMDA survival assays were performed to measure the degree of protection provided to cortical neuronal cells when treated with the novel compounds (at 30 μM, except DA026 at 10 μM) prior to NMDA insult.
Compounds derived from DA001 were tested for their ability to inhibit NMDA-induced excitotoxicity. Primary rat cortical neurons were subjected to NMDA insults in the presence and absence of the novel derivatives.
Cortical neurons were pre-treated with DA001 and subsequently subjected to varying concentrations of NMDA. Survival assays were then conducted to determine the ability of DA001 to effectively protect neuronal cells from NMDA-induced excitotoxicity.
LDH release into the medium was then measured.
Primary cortical and hippocampal neurons were prepared from embryonic day 18 (E18) Sprague-Dawley rats. Neurons were plated on 24-well pate (TPP, Corning) at a density of 2×10^5 cells per well using Neurobasal medium (Invitrogen) supplemented with 2% B27 (Invitrogen). […] The cell death was assayed and quantified using the lactate dehydrogenase release assay (Roche) after 24 hours. […]

MC5 = MC5 (Homo sapiens, UniProt P33032); experiment: Radioligand competition binding assay, MC5; conditions: MC5, DA001 10 μM, duplicate; read-out: % inhibition of control specific binding
Description: (§1) DA001 was evaluated against 109 receptor binding assays and 17 enzyme assays, comprising of selective, central and peripheral therapeutically-relevant targets. Radioligand competition assays were conducted whereby DA001 was tested at one concentration (10 μM) in duplicate. […] It could compete with the radioligand [^125I-NDP-alpha-melanocyte-stimulating hormone (α-MSH)] binding for MC1 and MC4 but not MC3 and MC5 nor the related family, the melanin concentrating hormone receptors (MCH1 and MCH2).

[2] = biological target: melanocortin-1 (MC1) receptor (Homo sapiens, UniProt Q01726); experiment: Radioligand competition binding assay, MC1
Description: as §1
(§2) To determine the IC50 for DA001 to inhibit α-MSH binding on MC1 and MC4 receptor, the compound was further characterized by a dose-dependent study. DA001 was evaluated with 8 concentrations on MC1 and MC4 receptor binding assays.
(§3) The specific ligand binding to the receptors is defined as the difference between the total binding and the nonspecific binding determined in the presence of an excess of unlabelled ligand. The results are expressed as a percent of control specific binding [(measured specific binding/control specific binding)×100] and as a percent inhibition of control specific binding {100−[(measured specific binding/control specific binding)×100]} obtained in the presence of DA001. The IC50 values (concentration causing a half-maximal inhibition of control specific binding) and Hill coefficients (nH) were determined by non-linear regression analysis of the competition curves generated with mean replicate values using Hill equation curve fitting (Y=D+[(A−D)/(1+(C/C50)nH)], where Y=specific binding, D=minimum specific binding, A=maximum specific binding, C=compound concentration, C50=IC50, and nH=slope factor). This analysis was performed using a software developed at Cerep (Hill software) and validated by comparison with data generated by the commercial software SigmaPlot® 4.0 for Windows® (© 1997 by SPSS Inc.).

[3] = biological target: melanin concentrating hormone receptor MCH2 (Homo sapiens, UniProt Q969V1); experiment: Radioligand competition binding assay, MCH2; conditions: MCH2, DA001 10 μM, duplicate; read-out: % inhibition of control specific binding
Description: as §1

[4] = biological target: melanocortin-4 (MC4) receptor (Homo sapiens, UniProt P32245); experiment: Radioligand competition binding assay, MC4
Description: as §1, §2, §3

[5] = biological target: melanin concentrating hormone receptor MCH1 (Homo sapiens, UniProt Q99705); experiment: Radioligand competition binding assay, MCH1; conditions: MCH1, DA001 10 μM, duplicate; read-out: % inhibition of control specific binding
Description: as §1

primary cortical neurons = experiment: Cell toxicity test (LDH) on primary neurons; assay type: cell-based; conditions: 24 hours, all concentrations, maximum dose 70 μM
Description: FIG. 8. […] Primary cortical neurons were treated with different concentrations of DA001 for 24 hours.
This was performed to study the effects of the invention on primary neurons. Cortical neurons isolated from embryonic day 18 Spraque-Dawley rats were cultured in Neurobasal medium supplemented with 2% B27 and penicillin/streptomycin solution (Invitrogen). Primary neurons of 7 days in culture (7 DIV) were treated with various concentrations of the invention in the absence of B27 for 24 hours. Lactate dehydrogenases (LDH) was released into the medium and measured and calculated as percentage compared to 1% Triton X-100.

[6] = system: rat primary hippocampal neurons; experiment: NMDA survival assay (LDH release), primary hippocampal neurons; assay type: cell-based; conditions: DA001 30 μM, NMDA 20 μM
Description: FIG. 6. DA001 protects against NMDA excitotoxicity in rat primary hippocampal neurons. Embryonic rat hippocampal neurons (11 DIV) were treated with NMDA (20 μM) in the absence or presence of DA001 (μM) or memantine (μM). LDH release in the medium was measured after overnight incubation and cell cytotoxicity was calculated in percentage when compared to solvent control (DMSO).
DA001 (at 30 μM) reduced cell death by ˜80%.
Primary cortical and hippocampal neurons were prepared from embryonic day 18 (E18) Sprague-Dawley rats. Neurons were plated on 24-well pate (TPP, Corning) at a density of 2×10^5 cells per well using Neurobasal medium (Invitrogen) supplemented with 2% B27 (Invitrogen). Neurons at 11-12 days in vitro (12DIV) were subjected to drug treatment. Neurons were pretreated with the test compound for 2 hours prior to NMDA treatment. 0.1 μM(+)-MK-801 Hydrogen Maleate (Sigma) was added as a positive control. Briefly, the neurons were rinsed with Locke's solution (5 mM potassium chloride, 128 mM sodium chloride, 2.7 mM calcium chloride, 1 mM di-sodium hydrogen orthophosphate, 5 mM HEPES and 10 mM glucose in Milli-Q water) without Mg^2+, and incubated with addition of glycine (10 μM) for 15 minutes. […] The cell death was assayed and quantified using the lactate dehydrogenase release assay (Roche) after 24 hours.

MC3 = MC3 (Homo sapiens, UniProt P41968); experiment: Radioligand competition binding assay, MC3; conditions: MC3, DA001 10 μM, duplicate; read-out: % inhibition of control specific binding
Description: as §1

melatonin (MT1) receptor = melatonin (MT1) receptor (Homo sapiens, UniProt P48039); experiment: Radioligand competition binding assay, MT1; conditions: MT1, DA001 10 μM, duplicate; read-out: % inhibition of control specific binding
Description: as §1

BDNF expression = experiment: Real-time quantitative PCR, BDNF expression following NMDA treatment; assay type: cell-based, rat
Description: FIG. 20 illustrates that DA001 induces BDNF and NT-3 expression but not Bcl-2 or c-fos following NMDA treatment.
Cortical neurons were pre-treated with DA001 prior to being subjected to NMDA insults, after which total RNA was extracted at different time intervals after treatment. There was a 5-fold increase in BDNF expression after a 6 hour incubation period. BDNF expression remained ˜3-4 fold over the control (DMSO) 12-24 hours after treatment with DA001.
Total RNA was extracted followed by cDNA synthesis. Gene expression was normalized against home gene, hypoxanthine phosphoribosyltransferase 1 (HPRT1) and glyceraldehyde 3-phosphate dehydrogenase (GAPDH). Relative change in gene expression induced by DA001+H2O and DA001+NMDA was compared with the controls, DMSO+H2O and DMSO+NMDA, respectively.
Cortical neurons were pre-treated with DA001 after which the cells were subjected to NMDA insult. The expression of BDNF was measured at three different time intervals and compared to that of NT-3, Bcl-2 and c-fos. DA001 induced BDNF and NT-3 expression but not bcl-2 or c-fos under the same conditions. […]
Cortical neurons of 11DIV-12DIV were pre-incubated with DA001 or DMSO for 24hours. […] Real-time Quantitative PCR was performed using Power SYBR Green PCR Master Mix (Applied Biosystems) on the M×3000P Real-Time PCR System (Stratagene). […]

melanocortin-4 (MC4) receptor, sequence (P32245 whole entry): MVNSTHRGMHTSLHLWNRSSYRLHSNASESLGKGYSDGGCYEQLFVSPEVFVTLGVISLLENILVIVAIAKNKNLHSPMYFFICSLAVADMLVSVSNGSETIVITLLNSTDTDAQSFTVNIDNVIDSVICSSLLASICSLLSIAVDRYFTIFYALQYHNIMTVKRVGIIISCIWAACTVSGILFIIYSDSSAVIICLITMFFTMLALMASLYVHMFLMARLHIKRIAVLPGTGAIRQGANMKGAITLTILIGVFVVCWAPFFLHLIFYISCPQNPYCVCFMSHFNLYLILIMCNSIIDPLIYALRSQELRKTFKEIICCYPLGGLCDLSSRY
melanocortin-1 (MC1) receptor, sequence (Q01726 whole entry): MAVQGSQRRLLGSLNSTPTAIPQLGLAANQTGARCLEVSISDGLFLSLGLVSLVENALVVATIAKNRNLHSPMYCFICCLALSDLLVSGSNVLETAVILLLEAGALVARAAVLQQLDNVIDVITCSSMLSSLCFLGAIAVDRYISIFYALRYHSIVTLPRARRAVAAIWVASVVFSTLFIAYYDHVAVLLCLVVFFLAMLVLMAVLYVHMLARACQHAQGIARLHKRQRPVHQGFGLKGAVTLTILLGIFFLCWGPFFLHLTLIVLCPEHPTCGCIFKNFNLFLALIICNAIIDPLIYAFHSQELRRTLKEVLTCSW
MC3, sequence (P41968 whole entry): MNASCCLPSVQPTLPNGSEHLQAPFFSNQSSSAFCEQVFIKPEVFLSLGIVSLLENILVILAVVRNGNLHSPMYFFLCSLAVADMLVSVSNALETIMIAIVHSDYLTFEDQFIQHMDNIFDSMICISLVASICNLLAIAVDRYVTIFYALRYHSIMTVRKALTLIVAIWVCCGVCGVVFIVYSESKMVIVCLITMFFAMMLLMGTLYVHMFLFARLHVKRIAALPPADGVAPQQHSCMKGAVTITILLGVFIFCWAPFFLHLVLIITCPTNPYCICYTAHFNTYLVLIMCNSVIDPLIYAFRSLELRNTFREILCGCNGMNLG
melatonin (MT1) receptor, sequence (P48039 whole entry): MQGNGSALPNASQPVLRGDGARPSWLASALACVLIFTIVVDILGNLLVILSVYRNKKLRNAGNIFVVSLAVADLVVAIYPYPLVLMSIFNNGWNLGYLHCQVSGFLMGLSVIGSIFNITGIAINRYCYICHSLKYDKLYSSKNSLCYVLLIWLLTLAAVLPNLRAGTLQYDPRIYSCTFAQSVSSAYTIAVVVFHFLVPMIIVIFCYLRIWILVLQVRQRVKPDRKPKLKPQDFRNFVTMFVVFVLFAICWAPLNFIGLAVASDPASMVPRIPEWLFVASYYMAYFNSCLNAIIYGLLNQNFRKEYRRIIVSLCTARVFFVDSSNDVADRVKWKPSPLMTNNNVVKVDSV
melanin concentrating hormone receptor MCH1, sequence (Q99705 whole entry): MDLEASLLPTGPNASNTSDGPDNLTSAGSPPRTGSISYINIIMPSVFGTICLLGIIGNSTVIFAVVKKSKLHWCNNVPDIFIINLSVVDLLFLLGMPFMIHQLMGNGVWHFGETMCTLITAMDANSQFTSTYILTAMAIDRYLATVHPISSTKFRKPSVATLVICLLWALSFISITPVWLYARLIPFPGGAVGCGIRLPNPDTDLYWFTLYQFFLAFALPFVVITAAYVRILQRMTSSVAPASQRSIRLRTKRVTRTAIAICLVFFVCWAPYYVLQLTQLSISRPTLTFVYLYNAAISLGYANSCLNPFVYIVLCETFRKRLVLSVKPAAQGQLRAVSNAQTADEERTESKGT
melanin concentrating hormone receptor MCH2, sequence (Q969V1 whole entry): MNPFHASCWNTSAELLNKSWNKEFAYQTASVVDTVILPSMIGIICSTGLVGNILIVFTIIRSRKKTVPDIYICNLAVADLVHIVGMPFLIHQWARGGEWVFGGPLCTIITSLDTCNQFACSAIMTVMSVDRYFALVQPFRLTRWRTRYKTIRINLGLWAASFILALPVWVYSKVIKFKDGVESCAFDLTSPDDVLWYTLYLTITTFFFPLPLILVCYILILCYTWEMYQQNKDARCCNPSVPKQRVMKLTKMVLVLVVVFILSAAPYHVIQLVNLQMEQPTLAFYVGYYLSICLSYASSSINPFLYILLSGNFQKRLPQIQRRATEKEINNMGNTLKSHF
MC5, sequence (P33032 whole entry): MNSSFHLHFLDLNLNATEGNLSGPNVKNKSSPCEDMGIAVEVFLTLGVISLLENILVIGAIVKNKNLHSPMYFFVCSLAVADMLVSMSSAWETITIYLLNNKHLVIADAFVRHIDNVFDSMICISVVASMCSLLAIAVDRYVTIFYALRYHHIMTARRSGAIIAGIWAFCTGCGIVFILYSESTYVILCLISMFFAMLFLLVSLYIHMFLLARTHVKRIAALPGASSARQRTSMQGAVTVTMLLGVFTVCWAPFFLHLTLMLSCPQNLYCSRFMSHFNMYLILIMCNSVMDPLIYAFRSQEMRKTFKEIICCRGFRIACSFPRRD

Compound	reduction of cell death compared to DA001 [1]	protection of cortical neurons against NMDA insult (cell death) ([1]; derivatives at 30 μM (DA026 at 10 μM), FIG. 12)	inhibition at 10 µM (MC5) [%]	Ki ([2]; MC1) [µM]	IC50 ([2]; MC1, 8 concentrations, α-MSH binding) [µM]	inhibition at 10 µM ([2]; MC1, DA001 10 μM, duplicate, 125I-NDP-α-MSH, read-out: % inhibition of control specific binding) [%]	inhibition at 10 µM [3] [%]	Ki ([4]; MC4) [µM]	IC50 ([4]; MC4, 8 concentrations, α-MSH binding) [µM]	inhibition at 10 µM ([4]; MC4, DA001 10 μM, duplicate, 125I-NDP-α-MSH, read-out: % inhibition of control specific binding) [%]	inhibition at 10 µM [5] [%]	reduction of cell death compared to DMSO control ([1]; DA001 10 μg/ml, LDH release)	cytotoxicity / cell death (LDH release) (primary cortical neurons)	reduction of cell death [6] [%]	inhibition at 10 µM (MC3) [%]	inhibition at 10 µM (melatonin (MT1) receptor) [%]	BDNF expression over the control (DMSO) (BDNF expression; 12-24 hours after treatment)	increase in BDNF expression (BDNF expression; after a 6 hour incubation period, DA001 pre-treatment 24 hrs, NMDA 20 μM) [fold]
C=C(C)C1CCC2(C(N)=O)CCC3(C)C(CCC4C5(C)CCC(O)C(C)(CO)C5CCC43C)C12 (stereo not shown) [DA021, 3,23-Dihydroxy-20(29)-lupen-28-iminol]	reduced cell death prominently compared to DA001	showed promising protective effect																
C=C(C)[C@@H]1CC[C@]2(C(=O)O)CC[C@]3(C)C(CC[C@@H]4[C@@]5(C)CC[C@H](O)[C@@](C)(CO)[C@@H]5CC[C@]43C)[C@@H]12 (stereo partly shown) [DA002, 3,23-Dihydroxy-20(29)-lupen-28-oic acid]	reduced cell death prominently compared to DA001																	
C=C(C)[C@@H]1CC[C@]2(C(=O)O)CC[C@]3(C)C(CC[C@@H]4[C@@]5(C)CC[C@H](O[C@@H]6OC[C@H](O)[C@H](O)[C@H]6O[C@@H]6O[C@@H](C)[C@H](O)[C@@H](O)[C@H]6O)[C@@](C)(CO)[C@@H]5CC[C@]43C)[C@@H]12 (stereo partly drawn) [DA001, 3-O-[α-L-rhamnopyranosyl-(1→2)-α-L-arabinopyranosyl]-3,23-dihydroxy-20(29)-lupen-28-oic acid]			11	5.2	10	64	-12	6.3	6.8	59	-9	more than 60%	No obvious cell death was observed at all doses examined; also recorded: did not induce cytotoxicity and cell death at all concentrations examined; also recorded: no significant toxicity was observed	~80	12	28	3-4 fold	5
